In brackets after ≈: the same amount, converted by molar mass.

The values below come from patent US4337199A, “Antibiotic β-lactam compounds, production thereof, and their use as antimicrobial agent” (Sanraku-Ocean Co., Ltd., priority 1978, dated 1982).

Holding throughout (test): minimum inhibitory concentration, agar dilution assay
What all share (assay type): cell-based
On the technique in general: Agar dilution tests growth on a series of plates holding different concentrations.

The test system of one assay is Alcaligenes faecalis A 1. As to conditions: A1, agar dilution, 35° C., 20 hours, read-out: minimum inhibitory concentration. The method, then:
(§1) The antibiotic activities shown in Tables I-1 to I-8 above were determined in the following manner.
(§2) The minimum inhibitory concentrations of the compounds of formula (I-a-1) or (I-b-1) in Tables I-1 to I-7 and the known compounds in Table I-8 on the various microorganisms shown in the above tables were measured by an agar dilution assay method using a brain heart infusion agar medium "Difco" (a product of Difco Laboratories Inc.)
(§3) A sample of the test compound was dissolved in sterile distilled water and diluted to prepare a two-fold dilution series of the compound solution. In a petri plate of 9 cm diameter, 1 ml of the compound solution was added to 9 ml of molten sterile heart infusion agar medium (Difco Laboratories Inc.) at about 60° C. to prepare the compound-containing agar plate. An overnight culture of each test organism indicated in the above table which was prepared by stationary cultivation in Trypto-Soy broth (Eiken Chemi. Co., Ltd.) at 35° C. for 18 to 20 hours, was diluted with the Trypto-Soy broth to give approximately 10^8 cells/ml and the diluted inoculum was inoculated onto the compound-containing agar plates. After cultivating the plates at 35° C. for 20 hours, the growth of the organism was observed. The minimum concentration of the compound at which no growth of the microorganism was noted was determined, and defined as the minimum inhibitory concentration of the test compound.

Assay [1] has as its system Bacillus subtilis ATCC 6633. As to conditions: ATCC6633, agar dilution, 35° C., 20 hours, read-out: minimum inhibitory concentration. The method, then: as §1, §2, §3
For assay [2], the system named is Citrobacter freundii GN 346. As to conditions: GN346, agar dilution, 35° C., 20 hours, read-out: minimum inhibitory concentration. The protocol: as §1, §2, §3
For assay [3], the system named is Comamonas terrigena B-996. As to conditions: B996, agar dilution, 35° C., 20 hours, read-out: minimum inhibitory concentration. The method, then: as §1, §2, §3
Assay [4] deals with Enterobacter aerogenes E19. To be noted: Klebsiella aerogenes, E19; agar dilution, 35° C., 20 hours; read-out: minimum inhibitory concentration. The protocol: as §1, §2, §3
Another assay deals with Enterobacter cloacae 45. To be noted: Enterobacter cloacae, 45; agar dilution, 35° C., 20 hours; read-out: minimum inhibitory concentration. The protocol:
as §1, §2, §3

Another assay relates to Enterobacter sp. E8. As to conditions: SP.E8, agar dilution, 35° C., 20 hours, read-out: minimum inhibitory concentration. The protocol:
as §1, §2, §3

The test system of a further assay is Escherichia coli K-12. As to conditions: K12, agar dilution, 35° C., 20 hours, read-out: minimum inhibitory concentration. The method, then: as §1, §2, §3
In the next assay the test system is Escherichia coli RGN 823. To be noted: RGN823, agar dilution, 35° C., 20 hours, read-out: minimum inhibitory concentration. The protocol:
as §1, §2, §3

In assay [5] the test system is Klebsiella pneumoniae K-13. As to conditions: K13, agar dilution, 35° C., 20 hours, read-out: minimum inhibitory concentration. The method, then:
as §1, §2, §3

In the next assay the test system is Proteus mirabilis P6. As to conditions: P6, agar dilution, 35° C., 20 hours, read-out: minimum inhibitory concentration. The protocol:
as §1, §2, §3

The next assay relates to Proteus rettgeri P7. To be noted: Providencia rettgeri, P7; agar dilution, 35° C., 20 hours; read-out: minimum inhibitory concentration. The protocol:
as §1, §2, §3

The next assay deals with Proteus sp. P22. As to conditions: agar dilution, 35° C., 20 hours; read-out: minimum inhibitory concentration. The protocol:
as §1, §2, §3

In a further assay the test system is Proteus vulgaris GN76. To be noted: GN76, agar dilution, 35° C., 20 hours, read-out: minimum inhibitory concentration. The method, then:
as §1, §2, §3

The test system of a further assay is Providencia sp. P8. To be noted: SP.P8, agar dilution, 35° C., 20 hours, read-out: minimum inhibitory concentration. The method, then:
as §1, §2, §3

The test system of assay [6] is Pseudomonas aeruginosa IFO3445. To be noted: IFO3445, agar dilution, 35° C., 20 hours, read-out: minimum inhibitory concentration. The method, then:
as §1, §2, §3

Assay [7] deals with Pseudomonas aeruginosa NCTC10490. To be noted: NCTC10490, agar dilution, 35° C., 20 hours, read-out: minimum inhibitory concentration. The method, then:
as §1, §2, §3

The next assay deals with Sarcina lutea. To be noted: Micrococcus luteus; agar dilution, 35° C., 20 hours; read-out: minimum inhibitory concentration. The method, then:
as §1, §2, §3

Another assay deals with Serratia marcescens S18. As to conditions: S18, agar dilution, 35° C., 20 hours, read-out: minimum inhibitory concentration. The protocol:
as §1, §2, §3

For another assay, the system named is Serratia marcescens T55. To be noted: T55, agar dilution, 35° C., 20 hours, read-out: minimum inhibitory concentration. The protocol:
as §1, §2, §3

For assay [8], the system named is Staphylococcus aureus FDA 209P. To be noted: FDA209P, agar dilution, 35° C., 20 hours, read-out: minimum inhibitory concentration. The protocol:
as §1, §2, §3

Assay [9] deals with Staphylococcus aureus Russell. To be noted: agar dilution, 35° C., 20 hours, read-out: minimum inhibitory concentration. The protocol: as §1, §2, §3
For assay [10], the system named is Staphylococcus aureus Smith. As to conditions: agar dilution, 35° C., 20 hours, read-out: minimum inhibitory concentration. The method, then:
as §1, §2, §3

Assay [11] has as its system Staphylococcus epidermidis. As to conditions: agar dilution, 35° C., 20 hours, read-out: minimum inhibitory concentration. The method, then: as §1, §2, §3

`CC(O)C1C(=O)N2C(C(=O)O)=C(Sc3ccccn3)CC12` (centres unmarked): the MIC in the assay with Alcaligenes faecalis A 1 is 6.25 µg/mL (≈ 20.4 µM); in assay [1], < 0.007 µg/mL; in assay [2] it was 6.25 µg/mL (≈ 20.4 µM); in assay [3], < 0.007 µg/mL; in assay [4] it was 6.25 µg/mL (≈ 20.4 µM); in the assay on Enterobacter cloacae 45 it was 12.5 µg/mL (≈ 40.8 µM). The MIC amounted to 0.78 µg/mL (≈ 2.55 µM) in the assay with Enterobacter sp. E8; 0.39 µg/mL (≈ 1.27 µM) in the assay with Escherichia coli K-12; 3.13 µg/mL (≈ 10.2 µM) in the assay with Escherichia coli RGN 823; 25 µg/mL (≈ 81.6 µM) in [5]; 0.39 µg/mL (≈ 1.27 µM) with Proteus mirabilis P6; 3.13 µg/mL (≈ 10.2 µM) with Proteus rettgeri P7. The MIC with Proteus sp. P22 was 12.5 µg/mL (≈ 40.8 µM); in the assay on Proteus vulgaris GN76, 12.5 µg/mL (≈ 40.8 µM); with Providencia sp. P8, 0.2 µg/mL (≈ 0.653 µM); in assay [6], 12.5 µg/mL (≈ 40.8 µM); in assay [7], 50 µg/mL (≈ 163 µM); in the assay on Sarcina lutea, < 0.007 µg/mL. For the same compound, the MIC was 12.5 µg/mL (≈ 40.8 µM) in the assay on Serratia marcescens S18; 25 µg/mL (≈ 81.6 µM) in the assay on Serratia marcescens T55; < 0.007 µg/mL in [8]; 0.013 µg/mL (≈ 0.0424 µM) in assay [9]; 0.013 µg/mL (≈ 0.0424 µM) in assay [10]; 0.05 µg/mL (≈ 0.163 µM) in assay [11].

Take `CC(C)C1C(=O)N2C(C(=O)O)=C(SC3CCCCC3)CC12` (centres unmarked): the MIC in the assay with Alcaligenes faecalis A 1 is 6.25 µg/mL (≈ 20.2 µM); in [1], 0.2 µg/mL (≈ 0.646 µM); in [2] it was > 100 µg/mL; in assay [3], 0.007 µg/mL (≈ 0.0226 µM); in [4], > 100 µg/mL; with Enterobacter cloacae 45, > 100 µg/mL. The MIC in the assay on Enterobacter sp. E8 is > 100 µg/mL; in the assay on Escherichia coli K-12, > 100 µg/mL; in the assay with Escherichia coli RGN 823, > 100 µg/mL; in assay [5], > 100 µg/mL; in the assay on Proteus mirabilis P6 it was 100 µg/mL (≈ 323 µM); in the assay on Proteus rettgeri P7, > 100 µg/mL. In addition, the MIC in the assay with Proteus sp. P22 was 100 µg/mL (≈ 323 µM); in the assay with Proteus vulgaris GN76 it was > 100 µg/mL; in the assay with Providencia sp. P8 it was > 100 µg/mL; in [6], > 100 µg/mL; in [7], 50 µg/mL (≈ 162 µM); with Sarcina lutea it was 0.025 µg/mL (≈ 0.0808 µM). The MIC was > 100 µg/mL in the assay on Serratia marcescens S18; > 100 µg/mL in the assay with Serratia marcescens T55; 0.025 µg/mL (≈ 0.0808 µM) in assay [8]; 0.025 µg/mL (≈ 0.0808 µM) in assay [9]; 0.05 µg/mL (≈ 0.162 µM) in [10]; 0.05 µg/mL (≈ 0.162 µM) in [11].

Regarding `CC(O)[C@H]1C(=O)N2C(C(=O)O)=C(Sc3ccncc3)C[C@H]12` (stereo partly drawn) [Example 59, 5,6-trans-3-(4-Pyridylthio)-6-(1-hydroxyethyl)-7-oxo-1-azabicyclo[3.2.0]hept-2-ene-2-carboxylic acid], the MIC in the assay with Alcaligenes faecalis A 1 stood at 0.025 µg/mL (≈ 0.0816 µM); in assay [1], 0.2 µg/mL (≈ 0.653 µM); in [2], 100 µg/mL (≈ 326 µM); in [4], 50 µg/mL (≈ 163 µM); in the assay with Enterobacter cloacae 45 it was 50 µg/mL (≈ 163 µM); in the assay on Enterobacter sp. E8 it was 0.78 µg/mL (≈ 2.55 µM). Further, the MIC is 1.56 µg/mL (≈ 5.09 µM) in the assay on Escherichia coli K-12; 25 µg/mL (≈ 81.6 µM) in the assay on Escherichia coli RGN 823; 6.25 µg/mL (≈ 20.4 µM) with Proteus mirabilis P6; 6.25 µg/mL (≈ 20.4 µM) in the assay with Proteus rettgeri P7; 1.56 µg/mL (≈ 5.09 µM) in the assay with Providencia sp. P8; 1.56 µg/mL (≈ 5.09 µM) in assay [7]. In addition, the MIC in the assay with Sarcina lutea was determined as 0.1 µg/mL (≈ 0.326 µM); with Serratia marcescens T55, 100 µg/mL (≈ 326 µM); in [8], 0.1 µg/mL (≈ 0.326 µM); in assay [9] it was 0.2 µg/mL (≈ 0.653 µM); in assay [10], 0.2 µg/mL (≈ 0.653 µM); in [11], 0.2 µg/mL (≈ 0.653 µM).

As for `CCC1C(=O)N2C(C(=O)O)=C(Sc3ccccn3)CC12` (centres unmarked) [Example 65, 3-(2-Pyridylthio)-6-ethyl-7-oxo-1-azabicyclo-[3.2.0]hept-2-ene-2-carboxylicacid], the MIC in the assay with Proteus rettgeri P7 amounted to 6.25 µg/mL (≈ 21.5 µM); in the assay on Proteus sp. P22, 6.25 µg/mL (≈ 21.5 µM); in the assay on Proteus vulgaris GN76, 12.5 µg/mL (≈ 43.1 µM); in the assay with Providencia sp. P8 it was 1.56 µg/mL (≈ 5.37 µM); in assay [6], 12.5 µg/mL (≈ 43.1 µM); in assay [7] it was 25 µg/mL (≈ 86.1 µM). For the same compound, the figures for the MIC with Serratia marcescens S18 and in the assay with Serratia marcescens T55 were 12.5 µg/mL (≈ 43.1 µM) and 25 µg/mL (≈ 86.1 µM), respectively.
